Laboratory results published in US20260256143A1, “HERBICIDAL COMPOSITION AND METHOD FOR CONTROLLING WEEDS” (Enko Chem, Inc., priority 2023, published 2026).
Read-outs that look alike come from different tables or passages of the source.

Columns and labels:
[1] = system: AMATU; experiment: Greenhouse pre-emergence residual test (Example 73); assay type: in vivo, Amaranthus rudis; conditions: Amaranthus tuberculatus, pre-emergence; Dose 90 g a.i./ha; 17-21 DAT; read-out: Pre-emergence percent weed growth and germination inhibition AMATU
Method: (§1) Compound 1 was tested at several doses for residual weed control efficacy by itself or in combination as a tank mix with commercial herbicides. The following commercial products were used in tank mix with a 10% active emulsifiable concentrate formulation of Compound 1: S-metolachlor (Dual Magnum®, Syngenta), mesotrione (Callisto®, Syngenta), pyroxasulfone (Zidua® SC, BASF), metribuzin (Tricor DF™, United Phosphorus, Inc).
(§2) Accordingly, weed seeds were planted in 2-inch pots containing custom field soil mix (sandy loam with 3.3% organic matter, pH 7.0) and covered with a fine layer of the same soil. Three replicate pots were treated with each compound. Treatment consisting of the above formulation excluding active compound was applied as a treatment control (TC). Pots were treated with the test compound solution in a laboratory spray chamber fitted with 8003 even fan nozzles calibrated to deliver 187-200 L ha^−1 at 269 kPa. All treatments included the following inert ingredients in the final formulation; 1% Crop Oil Concentrate (v/v) (AGRI-DEX, Helena Agri) and 2.5% Ammonium sulphate (w/v). Compound 1 was incorporated into the soil by simulating rainfall equivalent to 0.2 mm using the same track sprayer. Subsequently, pots were irrigated from the bottom until weed control evaluation. Pots were placed back in the greenhouse and evaluated for percentage visual growth and germination inhibition compared to TC 17-21 days after treatment (DAT). Complete growth inhibition is represented by 100%.

[2] = system: AMAPA; experiment: as above; assay type: in vivo, Amaranthus palmeri; conditions: Amaranthus palmeri, pre-emergence; Dose 90 g a.i./ha; 17-21 DAT; read-out: Pre-emergence percent weed growth and germination inhibition AMAPA
Method: as §1, §2

[3] = system: ABUTH; experiment: Field test, soil residual activity on bare soil (Example 71); assay type: in vivo; conditions: Abutilon theophrasti, 1008 h, 6 weeks after application, read-out: % growth inhibition ABUTH
Method: (§3) Compound 1 and Compound 1 mixed with pyroxasulfone were tested at different field locations to evaluate the herbicides efficacy for controlling weeds by soil residual activity. All herbicide treatments were applied with a backpack CO2 pressurized sprayer at 190 L/ha volume. The herbicide applications were made to bare soil free of any vegetation to assess the efficacy of the different herbicides to suppress weeds germination and development. The herbicide treatments included Compound 1 formulated as 10% emulsified concentrate, pyroxasulfone as a commercial formulation (ZIDUA SC, BASF), or a mixture of Compound 1 and pyroxasulfone products prepared as a “tank-mix” before the field application. All herbicide field spray solution included ammonium sulfate final solution concentration of 2%. Different weeds species were assessed at the separate field locations. For each species, the herbicide efficacy to control weeds, assessed as % of suppressed weeds plants relative to the untreated control plots, was evaluated at 6 weeks after the herbicide application.

[4] = system: AMAPA; experiment: as above; assay type: in vivo; conditions: Amaranthus palmeri, 1008 h, 6 weeks after application, read-out: % growth inhibition AMAPA
Method: as §3

[5] = system: DIGSA; experiment: as above; assay type: in vivo; conditions: Digitaria sanguinalis, 1008 h, Loc 5, pyroxasulfone 90 g a.i./ha, 6 weeks after application, read-out: % growth inhibition DIGSA
Method: as §3

[6] = system: SETFA; experiment: as above; assay type: in vivo; conditions: Setaria faberi, 1008 h, Loc 4, pyroxasulfone 90 g a.i./ha, 6 weeks after application, read-out: % growth inhibition SETFA
Method: as §3

[7] = system: CHEAL; experiment: as above; assay type: in vivo; conditions: Chenopodium album, 1008 h, Loc 6, pyroxasulfone 90 g a.i./ha, 6 weeks after application, read-out: % growth inhibition CHEAL
Method: as §3

[8] = system: KCHSC; experiment: Greenhouse pre-emergence residual test (Example 73); assay type: in vivo, Bassia scoparia; conditions: Bassia scoparia, pre-emergence; Dose 90 g a.i./ha; 17-21 DAT; read-out: Pre-emergence percent weed growth and germination inhibition KCHSC
Method: as §1, §2

[9] = system: CHEAL; experiment: as above; assay type: in vivo, Chenopodium album; conditions: Chenopodium album, pre-emergence; Dose 90 g a.i./ha; 17-21 DAT; read-out: Pre-emergence percent weed growth and germination inhibition CHEAL
Method: as §1, §2

[10] = system: ECHCG; experiment: as above; assay type: in vivo, Echinochloa crus-galli; conditions: Echinochloa crus-galli, pre-emergence; Dose 90 g a.i./ha; 17-21 DAT; read-out: Pre-emergence percent weed growth and germination inhibition ECHCG
Method: as §1, §2

[11] = system: AMATU; experiment: Field test, soil residual activity on bare soil (Example 71); assay type: in vivo, Amaranthus rudis; conditions: Amaranthus tuberculatus, 1008 h, 6 weeks after application, read-out: % growth inhibition AMATU
Method: as §3

[12] = system: ALOMY; experiment: Greenhouse pre-emergence residual test (Example 73); assay type: in vivo, Alopecurus myosuroides; conditions: Alopecurus myosuroides, pre-emergence; Dose 90 g a.i./ha; 17-21 DAT; read-out: Pre-emergence percent weed growth and germination inhibition ALOMY
Method: as §1, §2

[13] = system: DIGSA; experiment: as above; assay type: in vivo, Digitaria sanguinalis; conditions: Digitaria sanguinalis, pre-emergence; Dose 90 g a.i./ha; 17-21 DAT; read-out: Pre-emergence percent weed growth and germination inhibition DIGSA
Method: as §1, §2

[14] = Loc 3, pyroxasulfone 90 g a.i./ha

Cn1nc(C(F)(F)F)c(CS(=O)(=O)C2=NOC(C)(C)C2)c1OC(F)F [pyroxasulfone]
inhibition at 90 g/ha [1]: 83%
inhibition at 90 g/ha [2]: 73%
inhibition at 90 g/ha [3, 14]: 44%
inhibition at 90 g/ha ([3]; Loc 4, pyroxasulfone 90 g a.i./ha): 60%
inhibition at 90 g/ha ([3]; Loc 6, pyroxasulfone 90 g a.i./ha): 50%
inhibition at 90 g/ha [4, 14]: 34%
inhibition at 90 g/ha ([4]; Loc 5, pyroxasulfone 90 g a.i./ha): 75%
inhibition at 90 g/ha [5]: 74%
inhibition at 90 g/ha [6]: 77%
inhibition at 90 g/ha [7]: 88%
inhibition at 90 g/ha [8]: 80%
inhibition at 90 g/ha [9]: 100%
inhibition at 90 g/ha [10]: 100%
inhibition at 90 g/ha ([11]; Loc 1, pyroxasulfone 90 g a.i./ha): 97%
inhibition at 90 g/ha ([11]; Loc 2, pyroxasulfone 90 g a.i./ha): 74%
inhibition at 90 g/ha [12]: 47%
inhibition at 90 g/ha [13]: 78%
